The target in this assay is T1, recombinant human NK3 receptor (Homo sapiens, UniProt P29371).
T1 construct: expressed in transfected cells; host or cells: HEK293 cells (transient expression), membrane preparation
T1 sequence (P29371 1-465): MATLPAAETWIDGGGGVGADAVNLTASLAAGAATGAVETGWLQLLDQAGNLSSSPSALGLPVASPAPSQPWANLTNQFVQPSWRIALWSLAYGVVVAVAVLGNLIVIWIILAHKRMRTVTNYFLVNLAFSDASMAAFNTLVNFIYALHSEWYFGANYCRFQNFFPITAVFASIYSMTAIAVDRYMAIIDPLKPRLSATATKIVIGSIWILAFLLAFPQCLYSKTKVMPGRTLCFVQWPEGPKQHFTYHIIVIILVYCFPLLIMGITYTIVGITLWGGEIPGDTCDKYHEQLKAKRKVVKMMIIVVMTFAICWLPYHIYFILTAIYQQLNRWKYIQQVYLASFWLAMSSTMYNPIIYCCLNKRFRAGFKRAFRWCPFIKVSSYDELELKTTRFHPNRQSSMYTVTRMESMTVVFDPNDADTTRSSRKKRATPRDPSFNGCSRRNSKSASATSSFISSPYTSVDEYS
Briefly: [3H]SR142801 competition binding assay. The settings on record: membrane from HEK293 cells transiently expressing recombinant human NK3 receptor; radioligand [3H]SR142801; 75 min at RT. The protocol:
[^3H]SR142801 Competition Binding Assay
hNK3 receptor binding experiment were performed using [^3H]SR142801 (Catalog No. TRK1035, specific activity: 74.0 Ci/mmol, Amersham, GE Healthcare UK limited, Buckinghamshire, UK) and membrane isolated from HEK293 cells transiently expressing recombinant human NK3 receptor. After thawing, the membrane homogenates were centrifuged at 48,000×g for 10 min at 4° C., the pellets were resuspended in the 50 mM Tris-HCl, 4 mM MnCl2, 1 μM phosphoramidon, 0.1% BSA binding buffer at pH 7.4 to a final assay concentration of 5 μg protein/well. […] At the end of the incubation, membranes were filtered onto unitfilter (96-well white microplate with bonded GF/C filter preincubated 1 h in 0.3% PEI+0.3% BSA, Packard BioScience, Meriden, Conn.) with a Filtermate 196 harvester (Packard BioScience) and washed 4 times with ice-cold 50 mM Tris-HCl, pH 7.4 buffer. Nonspecific binding was measured in the presence of 10 μM SB222200 for both radioligands. The radioactivity on the filter was counted (5 min) on a Packard Top-count microplate scintillation counter with quenching correction after addition of 45 μl of microscint 40 (Canberra Packard S.A., Zürich, Switzerland) and shaking for 1 h. Inhibition curves were fitted according to the Hill equation: y=100/(1+(x/IC50)^nH), where nH=slope factor using Excel-fit 4 software (Microsoft). IC50 values were derived from the inhibition curve and the affinity constant (Ki) values were calculated using the Cheng-Prussoff equation Ki=IC50/(1+[L]/KD) where [L] is the concentration of radioligand and KD is its dissociation constant at the receptor, derived from the saturation isotherm. All experiments were performed in duplicate and the mean±standard error (SEM) of the individual Ki values was calculated.

Molecules are shown by their SMILES. pKi: −log10 of the molar value.

The term pKi denotes the negative decadic logarithm of the Ki, by convention in mol/L. Turning to `COc1cc2nc(N3CCC(Cc4ccccc4)(C(=O)N(C)C4Cc5ccccc5C4)CC3)nc(O)c2cc1OC` [Example 57, 4-Benzyl-1-(4-hydroxy-6,7-dimethoxy-quinazolin-2-yl)-piperidine-4-carboxylic acid indan-2-yl-methyl-amide], the pKi is 7.20.
For the molecule `COc1cc2nc(N3CCC(Cc4ccccc4)(C(=O)NC4CCc5ccccc5C4)CC3)nc(O)c2cc1OC` (centres unmarked) [Example 58, 4-Benzyl-1-(4-hydroxy-6,7-dimethoxy-quinazolin-2-yl)-piperidine-4-carboxylic acid (1,2,3,4-tetrahydro-naphthalen-2-yl)-amide], the pKi is 8.42.
As for `COc1cc2nc(N3CCC(Cc4ccccc4)(C(=O)Nc4cnn(C)c4)CC3)nc(O)c2cc1OC` [Example 59, 4-Benzyl-1-(4-hydroxy-6,7-dimethoxy-quinazolin-2-yl)-piperidine-4-carboxylic acid (1-methyl-1H-pyrazol-4-yl)-amide], the figure is 7.41; as for `COc1cc2nc(N3CCC(Cc4ccccc4)(C(=O)NC4Cc5cc(Cl)ccc5C4O)CC3)nc(O)c2cc1OC` (centres unmarked) [Example 65, 4-Benzyl-1-(4-hydroxy-6,7-dimethoxy-quinazolin-2-yl)-piperidine-4-carboxylic acid (5-chloro-1-hydroxy-indan-2-yl)-amide], 7.29.
As for `COc1cc2nc(N3CCC(Cc4ccccc4)(C(=O)NCC4CCC4)CC3)nc(O)c2cc1OC` [Example 67, 4-Benzyl-1-(4-hydroxy-6,7-dimethoxy-quinazolin-2-yl)-piperidine-4-carboxylic acid cyclobutylmethyl-amide], the figure is 7.32.
Take `COc1cc2nc(N3CCC(Cc4ccccc4)(C(=O)NC4CCc5ccccc5C4O)CC3)nc(O)c2cc1OC` (centres unmarked) [Example 68, 4-Benzyl-1-(4-hydroxy-6,7-dimethoxy-quinazolin-2-yl)-piperidine-4-carboxylic acid (1-hydroxy-1,2,3,4-tetrahydro-naphthalen-2-yl)-amide]: the negative-log Ki (pKi) is 7.08.
As for `COc1cc2nc(N3CCC(CC(C)C)(C(=O)NCc4ccccc4)CC3)nc(N)c2cc1OC` [Example 70, 1-(4-Amino-6,7-dimethoxy-quinazolin-2-yl)-4-isobutyl-piperidine-4-carboyxlic acid benzylamide], the figure is 7.19.
Under `COc1cc2nc(N3CCC(CC4CC4)(C(=O)NCc4ccccc4)CC3)nc(O)c2cc1OC` [Example 72, 4-Cyclopropylmethyl-1-(4-hydroxy-6,7-dimethoxy-quinazolin-2-yl)-piperidine-4-carboxylic acid benzylamide] stands 7.42.
Take `COc1cc2nc(N3CCC(CC4CC4)(C(=O)N(C)Cc4ccccc4)CC3)nc(O)c2cc1OC` [Example 75, 4-Cylcopropylmethyl-1-(4-hydroxy-6,7-dimethoxy-quinazolin-2-yl)-piperidine-4-carobxylic acid benzyl-methyl-amide]: the negative-log Ki (pKi) was 7.32.
For `COc1cc2nc(N3CCC(CC4CCC4)(C(=O)NCc4ccccc4)CC3)nc(O)c2cc1OC` [Example 76, 4-Cyclobutylmethyl-1-(4-hydroxy-6,7-dimethoxy-quinazolin-2-yl)-piperidine-4-carboxylic acid benzylamide], the pKi is 8.24.
Under `COc1cc2nc(N3CCC(CC4CCC4)(C(=O)NC4CCc5ccccc5C4)CC3)nc(O)c2cc1OC` (centres unmarked) [Example 77, 4-Cylcobutylmethyl-1-(4-hydroxy-6,7-dimethoxy-quinazolin-2-yl)-piperidine-4-carboxylic acid (1,2,3,4-tetrahydro-naphthalen-2-yl)-amide] stands 7.44; under `COc1cc2nc(N3CCC(CC4CCC4)(C(=O)NC4CCCC4)CC3)nc(O)c2cc1OC` [Example 78, 4-Cyclobutylmethyl-1-(4-hydroxy-6,7-dimethoxy-quinazolin-2-yl)-piperidine-4-carboxylic acid cyclopentylamide], 7.18.
As to `COc1cc2nc(N3CCC(CC4CCC4)(C(=O)NC4Cc5ccccc5C4)CC3)nc(O)c2cc1OC` [Example 79, 4-Cyclobutylmethyl-1-(4-hydroxy-6,7-dimethoxy-quinazolin-2-yl)-piperidine-4-carboxylic acid indan-2-ylamide], the negative logarithm of the Ki (pKi) is 7.08.
Under `COc1cc2nc(N3CCC(CC4CCC4)(C(=O)N(C)Cc4ccccc4)CC3)nc(O)c2cc1OC` [Example 80, 4-Cyclobutylmethyl-1-(4-hydroxy-6,7-dimethoxy-quinazolin-2-yl)-piperidine-4-carboxylic acid benzyl-methyl-amide] stands 8.12.
Under `CC(C)Oc1ccc2nc(N3CCC(Cc4ccccc4)(C(=O)NCc4ccccc4)CC3)nc(O)c2c1` [Example 83, 4-Benzyl-1-(4-hydroxy-6-isopropoxy-quinazolin-2-yl)-piperidine-4-carboxylic acid benzylamide] stands 7.01; under `COc1cc2nc(N3CCC(Cc4ccccc4)(C(=O)NCc4ccccc4)CC3)nc(O)c2cc1F` [Example 88, 4-Benzyl-1-(6-fluoro-4-hydroxy-7-methoxy-quinazolin-2-yl)-piperidine-4-carboxylic acid benzylamide], 8.03; under `O=C(NCc1ccccc1)C1(Cc2ccccc2)CCN(c2nc(O)c3ccc(OC(F)F)cc3n2)CC1` [Example 89, 4-Benzyl-1-(7-difluoromethoxy-4-hydroxy-quinazolin-2-yl)-piperidine-4-carboxylic acid benzylamide], 7.94.
In the case of `COc1cc2nc(N3CCC(Cc4ccccc4)(C(=O)NCc4ccccc4)CC3)nc(O)c2cc1C` [Example 90, 4-Benzyl-1-(4-hydroxy-7-methoxy-6-methyl-quinazolin-2-yl)-piperidine-4-carboxylic acid benzylamide], the pKi was 7.88.
`COc1cc2nc(N3CCC(Cc4ccccc4)(C(=O)NCc4ccccc4)CC3)nc(O)c2cc1OC(C)C` [Example 91, 4-Benzyl-1-(4-hydroxy-6-isopropoxy-7-methoxy-quinazolin-2-yl)-piperidine-4-carboxylic acid benzylamide]: the pKi is 8.27.
Under `COc1cc2c(O)nc(N3CCC(Cc4ccccc4)(C(=O)NCc4ccccc4)CC3)nc2cc1OC(C)C` [Example 92, 4-Benyzl-1-(4-hydroxy-7-isopropoxy-6-methoxy-quinazolin-2-yl)-piperidine-4-carboxylic acid benzylamide] stands 7.67; under `COc1cc2nc(N3CCC(Cc4ccccc4)(C(=O)NCc4ccccc4)CC3)nc(O)c2cc1Cl` [Example 93, 4-Benzyl-1-(6-chloro-4-hydroxy-7-methoxy-quinazolin-2-yl)-piperidine-4-carboxylic acid benzylamide], 8.04; under `CCOc1cc2nc(N3CCC(Cc4ccccc4)(C(=O)NCc4ccccc4)CC3)nc(O)c2cc1OC(F)F` [Example 94, 4-Benzyl-1-(6-difluoromethoxy-7-ethoxy-4-hydroxy-quinazolin-2-yl)-piperidine-4-carboxylic acid benzylamide], 8.08.
Under `COc1ccc2c(O)nc(N3CCC(Cc4ccccc4)(C(=O)NCc4ccccc4)CC3)nc2c1` [Example 95, 4-Benzyl-1-(4-hydroxy-7-methoxy-quinazolin-2-yl)-piperidine-4-carboxylic acid benzylamide] stands 8.29.
Under `CC(C)Oc1ccc2c(O)nc(N3CCC(Cc4ccccc4)(C(=O)NCc4ccccc4)CC3)nc2c1` [Example 96, 4-Benzyl-1-(4-hydroxy-7-isopropoxy-quinazolin-2-yl)-piperidine-4-carboxylic acid benzylamide] stands 7.95; under `COc1cc2nc(N3CCC(Cc4ccccc4)(C(=O)NCc4ccccc4)CC3)nc(O)c2cc1C#N` [Example 97, 4-Benzyl-1-(6-cyano-4-hydroxy-7-methoxy-quinazolin-2-yl)-piperidine-4-carboxylic acid benzylamide], 7.80; under `O=C(NCc1ccccc1)C1(Cc2ccccc2)CCN(c2nc(O)c3ccc(C(F)(F)F)cc3n2)CC1` [Example 98, 4-Benzyl-1-(4-hydroxy-7-trifluoromethyl-quinazolin-2-yl)-piperidine-4-carboxylic acid benzylamide], 8.21.

The record behind these values is patent US8318749B2, “Quinazoline derivatives as NK3 receptor antagonists” (Hoffmann-La Roche Inc., priority 2008, dated 2012).
